# Target: T1, Kinase A and SpoOF (Bacillus subtilis, UniProt P16497)
# T1 construct: made in house; host or cells: recombinant E. coli (overexpression)
# T1 sequence (P16497 1-606): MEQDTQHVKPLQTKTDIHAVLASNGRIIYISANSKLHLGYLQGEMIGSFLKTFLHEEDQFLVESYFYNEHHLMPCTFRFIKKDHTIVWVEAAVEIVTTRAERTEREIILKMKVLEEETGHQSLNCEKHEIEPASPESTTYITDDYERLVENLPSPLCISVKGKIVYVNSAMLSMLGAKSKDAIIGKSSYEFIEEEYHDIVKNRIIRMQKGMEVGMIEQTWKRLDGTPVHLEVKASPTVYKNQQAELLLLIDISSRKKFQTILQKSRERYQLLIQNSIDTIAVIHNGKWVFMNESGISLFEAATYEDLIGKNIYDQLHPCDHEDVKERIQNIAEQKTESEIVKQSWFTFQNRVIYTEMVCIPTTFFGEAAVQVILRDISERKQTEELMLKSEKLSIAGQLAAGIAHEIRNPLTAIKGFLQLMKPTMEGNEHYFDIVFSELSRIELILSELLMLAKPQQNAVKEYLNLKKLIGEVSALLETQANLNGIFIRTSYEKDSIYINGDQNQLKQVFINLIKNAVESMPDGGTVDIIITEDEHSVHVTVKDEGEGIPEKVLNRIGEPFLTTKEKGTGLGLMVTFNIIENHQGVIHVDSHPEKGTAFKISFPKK
# Assay: Autophosphorylation of Kinase A and Transphosphorylation of SpoOF Assay (HPK in vitro assay)
# Type: biochemical
# Details: inhibition of KinA autophosphorylation / SpoOF transphosphorylation, inhibitor concentrations from 1 to 500 μM
# Description: 1. Autophosphorylation of Kinase A and Transphosphorylation of SpoOF Assay
# To study the effect of the compounds of the present invention on the signal transduction process in bacteria, the inhibiting effect of the compounds on the sporulation operon proteins Kinase A and SpoOF was examined. Specifically, the inhibition of autophosphorylation of Kinase A and the transphosphorylation of SpoOF was determined in the following assays. The SpoOF response regulator is the primary substrate for phosphorylation by the protein kinase, Kin A, involved in the sporulation process in bacteria. See D. Burbulys, K. A. Trach, J. A. Hoch, Cell, 64, 545-552 (1991). SpoOF and KinA were prepared from recombinant E. coli overexpressing the proteins (J. Cavanagh et al, Amino Acids, 6, 131-140 (1994) and references therein).
# The following stock reagents were either prepared and used promptly or stored at the indicated temperature:
# 8× Salts: 2M KCl (5 mL), 1M MgCl2 (800 mL), 1M CaCl2 (100 mL), 10 mg/mL phenylmethylsulfonyl fluoride (200 mL), 1M dithioreitol (50 mL), 0.25M Na2 EDTA (32 mL) and H2 O 3.82 mL (-20° C.)
# 5× Loading Dye: 0.5M TRIS-HCl-pH 6.8 (7.5 mL), 10% SDS (2 mL) 0.1% bromophenol blue (0.5 mL), 100% glycerol (3 mL) and 12.5M 2-mercaptoethanol (0.3 mL)
# 1-1.3 mg/mL KinA:15 mM TRIS-HCl, pH 8.0, 6 mM KCl; 4 mM 2-mercaptoethanol; 40% glycerol (-20° C.)
# 1 mg/mL SpoOF: 17.5 mM TRIS-HCl, pH 8.0; 0.7 mM KCl; 0.7 mM MgCl2; 0.7 mM CaCl2; 5mM 2-mercaptoethanol; 30% Glycerol (-20° C.)
# 5% Stacking Gel: 40% 29:1 acrylamide:bis acrylamide (1.25 mL), 0.5M TRIS-HCl, pH 6.8 (2.5 mL), 10% SDS (0.1 mL), D-H2 O (6.15 mL) 10% ammonium persulfate (100 mL) and TEMED (25 mL)
# SDS Running Buffer: TRIS-BASE (3.02 g), glycine (14.4 g) SDS (1 g), D-H2 O (to 1 L)
# The reaction mixture was prepared from 8× Salts (87 μL), 1M TRIS, pH 8 (118 μL), 50% glycerol (63 μL), SpoOF (14.1 μL) and KinA (7.0 μL). Microcentrifuge tubes were charged with the reaction mixture (18.5 μL) and a 1.0 mM solution of the test compound in 5% DMSO (18.5 μL), and incubated for 15 min on ice. 100 mM ATP solution (3.0 μl, containing 625 μCi [^32 P]ATP) was added, and the mixture left for 10 minutes at room temperature. The reaction was quenched with 5× loading dye (10 μL per tube) and the samples were loaded on a prepared 5% Stacking Gel, or stored on dry ice until ready for use. The prepared wells were filled with SDS Running Buffer, samples were loaded into the wells, and 80 volts were applied to the gel until the dye front reached the bottom of the stacking gel. The voltage was then increased to 250 volts until electrophoresis was complete. Radioactive bands in the gel corresponding to phosphorylated KinA and SpoOF were imaged and quantitated with a phosphoimager.
# If either enzyme was inhibited (as evidenced by the absence of labelled protein in the developed gel), an IC50 was calculated by running the assay with a range of inhibitor concentrations from 1 to 500 μM. After electrophoresis of the reaction mixtures, percent inhibition was determined by measuring the concentration of radioactive phosphorus with a phosphoimager and calculating the values using a software program (BioRad Molecular Analyst). IC50 values of less than 500 μM are considered active.
row,IC50,Structure (SMILES)
1,26 µM,"N=C(N)NCCc1ccc(OCCC2Oc3ccccc3N(Cc3csc(Cl)c3)C2=O)cc1 (stereo not drawn) [Compound 48, 4-(2-Chloro-4-thienylmethyl)-3,4-dihydro-2-{2-[4-(2-guanidinoethyl)phenoxy]ethyl}-3-oxo-2H-1,4-benzoxazine]"
2,36 µM,"N=C(N)NCCc1ccc(OCCC2Oc3ccc(-c4ccccc4)cc3N(Cc3cccc(Cl)c3)C2=O)cc1 (stereo not drawn) [Compound 52, 4-(3-Chlorobenzyl)-3,4-dihydro-2-{2-[4-(2-guanidinoethyl)phenoxy]ethyl}-3-oxo-6-phenyl-2H-1,4-benzoxazine]"
3,14 µM,"N=C(N)NCCc1ccc(OCCC2Oc3ccc(C(F)(F)F)cc3N(Cc3cccc(Cl)c3)C2=O)cc1 (stereo not drawn) [Compound 54, 4-(3-Chlorobenzyl)-3,4-dihydro-2-{2-[4-(2-guanidinoethyl)phenoxy]ethyl}-3-oxo-6-trifluoromethyl-2H-1,4-benzoxazine]"
4,28 µM,"N=C(N)NCCc1ccc(OCCC2Oc3cc(F)ccc3N(Cc3cccc(Cl)c3)C2=O)cc1 (stereo not drawn) [Compound 55, 4-(3-Chlorobenzyl)-3,4-dihydro-7-fluoro-2-{2-[4-(2-guanidinoethyl)phenoxy]ethyl}-3-oxo-2H-1,4-benzoxazine]"
5,17 µM,"N=C(N)NCCc1ccc(OCCC2Oc3c(Cl)cc(Cl)cc3N(Cc3cccc(Cl)c3)C2=O)cc1 (stereo not drawn) [Compound 57, 4-(3-Chlorobenzyl)-6,8-dichloro-2-{2-[4-(2-guanidinoethyl)phenoxy]ethyl}-3,4-dihydro-3-oxo-2H-1,4-benzoxazine]"
6,174 µM,"N=C(N)NCCc1ccc(OCCC2Oc3ccncc3N(Cc3cccc(Cl)c3)C2=O)cc1 (stereo not drawn) [Compound 62, 4-(3-Chlorobenzyl)-3,4-dihydro-2-[2-[4-(2-guanidinoethyl)phenoxy]ethyl]-3-oxo-2H-pyrido[4,3-b]-1,4-oxazine]"
7,19 µM,"Cc1ccc(CN2CC(CCOc3ccc(CCNC(=N)N)cc3)Oc3ccccc32)cc1 (stereo not drawn) [Compound 66, 3,4-Dihydro-2-{2-[4-[2-guanidinoethyl]phenoxy]ethyl}-4-(4-methylbenzyl)-2H-1,4-benzoxazine]"
8,17 µM,"N=C(N)NCCc1ccc(OCCC2CN(Cc3ccc(Cl)cc3Cl)c3ccccc3O2)cc1 (stereo not drawn) [Compound 68, (2,4-Dichlorobenzyl)-3,4-dihydro-2-{2-[4-(2-guanidinoethyl)phenoxy]ethyl}-4-2H-1,4-benzoxazine]"
9,27 µM,"Cl.NCCc1ccc(OCCC2Oc3cc([N+](=O)[O-])ccc3N(Cc3cccc(Cl)c3)C2=O)cc1 (stereo not drawn) [Compound 82, 2-{2-[4-(2-Aminoethyl)phenoxy]ethyl}-4-(3-chlorobenzyl)-3,4-dihydro-7-nitro-3-oxo-2H-1,4-benzoxazine monohydrochloride]"

# Continued, compound first:
row,Structure (SMILES),IC50
1,"N=C(N)NCCc1ccc(OCCC2Oc3ccccc3N(Cc3ccncc3)C2=O)cc1 (stereo not drawn) [Compound 42, 3,4-Dihydro-2-{2-[4-(2-guanidinoethyl)phenoxy]ethyl}-3-oxo-4-(4-picolyl)-2H-1,4-benzoxazine]",444 µM
2,"N=C(N)NCCc1ccc(OCCC2Oc3ccccc3N(Cc3cccc4ccccc34)C2=O)cc1 (stereo not drawn) [Compound 43, 3,4-Dihydro-2-{2-[4-(2-guanidinoethyl)phenoxy]ethyl}-4-(1-naphthylmethyl)-3-oxo-2H-1,4-benzoxazine]",13 µM
3,"N=C(N)NCCc1ccc(OCCC2Oc3ccccc3N(Cc3ccc4ccccc4c3)C2=O)cc1 (stereo not drawn) [Compound 45, 3,4-Dihydro-2-{2-[4-(2-guanidinylethyl)phenoxy]ethyl}-4-(2-naphthylmethyl)-3-oxo-2H-1,4-benzoxazine]",17 µM
4,"N=C(N)NCCc1ccc(OCCC2Oc3ccccc3N(Cc3ccsc3)C2=O)cc1 (stereo not drawn) [Compound 46, 3,4-Dihydro-2-{2-[4-(2-guanidinylethyl)phenoxy]ethyl}-3-oxo-2H-4-(3-thienylmethyl)-1,4-benzoxazine]",68 µM
5,"CC(C)(C)OC(=O)N=C(NCCc1ccc(OCCC2Oc3ccccc3N(Cc3csc(Cl)c3)C2=O)cc1)NC(=O)OC(C)(C)C (stereo not drawn) [Compound 47, 2-{2-[4-[2-(N,N-Bis-tert-butoxycarbonylguanidino)ethyl]phenoxy]ethyl}-4-(2-chloro-4-thienylmethyl)-3,4-dihydro-3-oxo-2H-1,4-benzoxazine]",398 µM
6,"CC(C)(C)OC(=O)N=C(NCCc1ccc(OCCC2Oc3ccc(C(F)(F)F)cc3N(Cc3cccc(Cl)c3)C2=O)cc1)NC(=O)OC(C)(C)C (stereo not drawn) [Compound 53, 2-{2-[4-[2-(N,N'-Bis-tert-butoxycarbonylguanidino)ethyl]phenoxy]ethyl}-4-(3-chlorobenzyl)-3,4-dihydro-3-oxo-6-trifluoromethyl-2H-1,4-benzoxazine]",84 µM
7,"CN1C(=O)C(CCOc2ccc(CCNC(=NC(=O)OC(C)(C)C)NC(=O)OC(C)(C)C)cc2)Oc2ccccc21 (stereo not drawn) [Compound 59, 2-{2-[4-[2-(N,N'-Bis-tert-butoxycarbonylguanidino)ethyl]phenoxy]ethyl}-3,4-dihydro-4-methyl-3-oxo-2H-1,4-benzoxazine]",473 µM
8,"CC(C)(C)OC(=O)NCCc1cccc(OCCC2Oc3ccccc3N(Cc3cccc(Cl)c3)C2=O)c1 (stereo not drawn) [Compound 69, 2-{2-[3-(2-(t-Butoxycarbonylamino)ethyl)phenoxy]ethyl}-4-(3-chlorobenzyl)-3,4-dihydro-3-oxo-2H-1,4-benzoxazine]",358 µM
9,"CC(C)(C)OC(=O)N=C(NCCc1ccc(OCCC2Oc3ccccc3N(Cc3cccc(Cl)c3)C2=O)cc1)NC(=O)OC(C)(C)C (stereo not drawn) [Compound 71, 2-{2-[4-[2-(N,N-'Bis-tert-butoxycarbonylguanidino)ethyl]phenoxy]ethyl}-4-(3-chlorobenzyl)-3,4-dihydro-3-oxo-2H-1,4-benzoxazine]",300 µM
10,"CC(C)(C)OC(=O)NCc1cccc(OCCC2Oc3ccccc3N(Cc3cccc(Cl)c3)C2=O)c1 (stereo not drawn) [Compound 73, 2-{2-[3-(t-Butoxycarbonylaminomethyl)phenoxy]ethyl}-4-(3-chlorobenzyl)-3,4-dihydro-3-oxo-2H-1,4-benzoxazine]",354 µM
11,"CC(C)(C)OC(=O)N=C(NCc1ccc(OCCC2Oc3ccccc3N(Cc3cccc(Cl)c3)C2=O)cc1)NC(=O)OC(C)(C)C (stereo not drawn) [Compound 77, 2-{2-[4-[(N,N-'Bis-tert-butoxycarbonyl)guanidinomethyl]phenoxy]ethyl}-4-(3-chlorobenzyl)-3,4-dihydro-3-oxo-2H-1,4-benzoxazine]",51 µM
12,CC(C)(C)OC(=O)N=C(NCCc1ccc(OCCC2Oc3cc([N+](=O)[O-])ccc3N(Cc3cccc(Cl)c3)C2=O)cc1)NC(=O)OC(C)(C)C (stereo not drawn) [Compound 80],162 µM
